From patent publication US7705034B2, “Vinylogous acid derivatives” (Hoffmann-La Roche Inc., priority 2006, dated 2010) come the findings set out here.

Usually IC50 stands for the concentration at which inhibition is half-maximal. Higher therefore signals lower potency.

The test addresses T1, Chymase purified form human skin mast cells (Homo sapiens, UniProt P23946).
T1 construct: Chymase purified form human skin mast cells was obtained from Calbiochem; purchased Calbiochem (Merck Biosciences, San Diego, Calif., USA); host or cells: human skin mast cells (natural source)
T1 sequence (P23946 22-247): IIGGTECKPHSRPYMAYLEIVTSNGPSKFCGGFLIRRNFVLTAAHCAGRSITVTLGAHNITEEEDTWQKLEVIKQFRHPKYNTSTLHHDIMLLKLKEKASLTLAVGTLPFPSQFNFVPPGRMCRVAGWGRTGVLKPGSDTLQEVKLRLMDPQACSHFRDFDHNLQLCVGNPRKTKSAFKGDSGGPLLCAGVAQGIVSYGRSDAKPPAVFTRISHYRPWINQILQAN
In words: chymase peptide substrate assay (AAPF-AMC fluorescence). In kind it is biochemical. The conditions noted are these: 1 nM chymase, 0.02 mM AAPF-substrate, pH 7.4, room temperature, 30 min pre-incubation. How it is done:
The peptide was synthesized with a purity of 95% from Bachem, Bubendorf, Switzerland). Chymase purified form human skin mast cells was obtained from Calbiochem (Merck Biosciences, San Diego, Calif., USA). The assay buffer was 0.15 M NaCl, 0.05M, Tris HCl, 0.05% CHAPS (3-[(3-Cholamidopropyl)-dimethylammonio]-1-propane sulphonate), 0.1 mg/ml Heparin (Heparin sodium, Sigma, porcine intestinal mucosa), 0.02 mM AAPF-substrate, 1 nM Chymase at pH 7.4. The assay was performed in 96-well plates (Packard Optiplate), with a 0.05 ml volume at room temperature. Chymase activity was indicated by the initial rate of increase in fluorescence at 340/440 nm (excitation/emission) from free 7-amino-4-methylcoumarin released from the substrate. Inhibition of the activity by inhibitory compounds was read after 30 min pre-incubation with the chymase at room temperature in assay buffer without AAPF-substrate. The assay was then started by addition of the indicated concentration of AAPF-substrate.
On to `Cc1c(C(C2=C(O)C(C)(c3ccccc3)C2=O)c2ccccc2)[nH]c2ccccc12` (stereo not shown) [Example 6, 3-Hydroxy-4-methyl-2-[(3-methyl-1H-indol-2-yl)-phenyl-methyl]-4-phenyl-cyclobut-2-enone], for which inhibition was half-maximal at 34 nM (IC50).
For `CC(=O)NCc1c(C(C2=C(O)C(C)(c3ccccc3)C2=O)c2ccccc2)[nH]c2cc(C)ccc12` (stereo not shown) [Example 10, N-{2-[(2-Hydroxy-3-methyl-4-oxo-3-phenyl-cyclobut-1-enyl)-phenyl-methyl]-6-methyl-1H-indol-3-ylmethyl}-acetamide] the value was 25 nM; for `CC(=O)NC(C)(C)Cc1c(C(C2=C(O)C(C)(c3ccccc3)C2=O)c2ccccc2)[nH]c2cc(C)ccc12` (stereo not shown) [Example 3, N-(2-{2-[(2-Hydroxy-3-methyl-4-oxo-3-phenyl-cyclobut-1-enyl)-phenyl-methyl]-6-methyl-1H-indol-3-yl}-1,1-dimethyl-ethyl)-acetamide], 27 nM; for `Cc1ccc(C2(C)C(=O)C(C(c3ccccc3)c3[nH]c4cc(C)ccc4c3C)=C2O)cc1` (stereo not shown) [Example 13, 2-[(3,6-Dimethyl-1H-indol-2-yl)-phenyl-methyl]-3-hydroxy-4-methyl-4-p-tolyl-cyclobut-2-enone], 8 nM.
